# Assay results taken from paper PMC9014845 (Clinical cancer research : an official journal of the …, 2019).
# What was measured:
# [1] = system: FGFR; experiment: Blood PD biomarkers; format: in vivo, human
# [2] = system: FGFR; experiment: Tissue biomarkers in skin and tumor biopsies; format: in vivo, human
# [3] = Allometric scaling of single dose PK data from mice, rats and monkeys; design: species or system human; conditions: allometric scaling model of single dose PK data from mice, rats, monkeys
# [4] = system: monkeys; experiment: 4-week repeated-dose toxicity study; format: in vivo, monkey
# [5] = system: advanced solid tumors harboring FGFR1–3 gene alterations; experiment: Tumor response according to RECIST 1.1
# [6] = system: tumor models with FGFR alterations; conditions: several tumor models with FGFR alterations in vivo; cited from earlier work
substance,measurement,setting,value
Debio 1347,Hyperphosphatemia versus plasma exposure,[1]; maximum serum phosphate in cycle 1 versus plasma trough levels,correlated with Debio 1347 exposure
same,Dose at which serum phosphate confirmed target engagement,[1]; oral once daily,≥ 60 mg/day
same,Ctrough at which serum phosphate increases of 50% from baseline were achieved,"[1]; seen in about half of patients at 60 mg/day, majority at ≥80 mg/day",about 400 ng/mL
same,Plasma FGF23 change,"[1]; steady-state, without clear relationship to the dose",overall increase
same,DUSP6 mRNA expression change in tumor biopsies,"[2]; on treatment (day 8), 14 paired biopsies",a decrease in DUSP6 was observed
same,"Change of phosphorylated markers (pERK, pFRS2, pS6) in skin biopsies","[2]; predose to day 8, 31 biopsy pairs, immunohistochemistry",no clear decrease
same,Patients with DUSP6 decrease >50% who achieved a PR,[2]; tumor biopsies,two out of three
same,Predicted plasma half-life in humans,[3],9 h
same,Highest non-severely toxic dose,[4],4 mg/kg/day
same,Disease stabilization among patients with confirmed FGFR fusions,"[5]; 10 patients, doses ≥60 mg/day",5 patients
same,PRs among patients with confirmed FGFR fusions,"[5]; 10 patients, doses ≥60 mg/day",3 patients
same,Patients with stable disease as best objective response,[5]; 57 evaluable,16 patients
same,Patients with stable disease showing reduced target lesion size (tumor size regressions of ≤30%),[5]; 57 evaluable,10 patients
same,Response per independent central radiological review,"[5]; one patient with cholangiocarcinoma, 110 mg, changed from partial",confirmed complete response
same,Disease control rate (DCR),[5]; overall,39%
same,Disease control rate (DCR),"[5]; patients with confirmed FGFR fusions, ≥60 mg/day",80%
same,Median treatment duration in patients with disease control,[5]; range 24–47,34 weeks
same,Efficacy in tumor models,[6],effective
